Experimental data taken from article PMC10674160, “Synthesis and Preclinical Evaluation of Radiolabeled [^103Ru]BOLD-100” (Pharmaceutics, 2023).

Test: Tissue distribution in CT26 allograft bearing Balb/c mice (ICP-MS for 3a, gamma counting for 3b)
Format: in vivo
Method: UV/Vis spectra were recorded on a Hitachi U-2000 Dual Beam spectrophotometer. Sample activities were measured on an ISOMED 2010 dose calibrator. For centrifugation during synthesis, a Fisherbrand^TM Mini-Centrifuge from Fisher Scientific was used. Radioactive organ samples were measured on Perkin Elmer Wizard^2 gamma counter. Non-radioactive organ samples were prepared, and the ruthenium content was quantified with ICP-MS. The exact procedure including instrument information can be found in the Supplementary Materials.
For the evaluation of organ distribution, CT26 cells (5 × 10^5 in serum-free medium) were injected subcutaneously into the right flank of Balb/c mice. Animals were controlled for distress development every day and tumor size was assessed regularly using caliper measurements. CT26 cells were inoculated 10 days prior to drug application. Tumor volume was calculated using the formula: (length × width^2); the tumors reached a size of about 500 mm^3. Animals were treated once intravenously (i.v.) via tail-vein injection with 3a or 3b at a dose of 30 mg/kg (dissolved in 0.9% NaCl, 0.6 mg/100 µL/20 g mouse) and a specific activity of 0.64–1.36 MBq/mg for compound 3b. The mice were anesthetized and sacrificed by cervical fracture 4, 24, 48 and 72 h p.i., with n ≥ 2 (3a) and n ≥ 3 (3b) for each time point. Samples of tumor, liver, kidney, muscle, heart, lung, spleen, pancreas, stomach, colon, small intestine, brain, bone, and blood were collected from each mouse. After clotting at RT, serum was isolated from the collected blood samples by centrifugation at 3000 rpm for 10 min twice and stored together with the collected tissue samples at −20 °C. Finally, the ruthenium content was quantified by ICP-MS in the case of the non-radioactive BOLD-100 (3a) and via gamma counting for [^103Ru]BOLD-100 (3b).
An Agilent 7800 ICP-MS (Agilent Technologies, Tokyo, Japan) was being employed, which was equipped with an Agilent SPS 4 autosampler (Agilent Technologies, Tokyo, Japan) and a MicroMist nebulizer at a sample uptake rate of approx. 0.2 mL/min. The Agilent MassHunter software package (Workstation Software, Version C.01.04, 2018) was used for data evaluation. The instrumental parameters […]
Reference source not found..
Ta ble S1: Instrumental parameters for the ICP-MS measurements […]
Spray chamber Scott double-pass
Spraying chamber temp. 2°C
Nebulizer gas 1.06 L min−1
Auxiliary gas 0.90 L min−1
The instrumental limit of quantification (LOQ) was determined at the start of the measurement by […]
LOQ = blank average + 10*STD
Blank corrections were performed for all the samples. Robustness was ensured by tuning the ICP-MS on a daily basis, by using an internal standard (115In) and measuring calibration standards for each […]
Ultrapure water (18.2 MΩ cm, ELGA Water purification system, Purelab Ultra MK 2, UK or 18.2 MΩ cm, Milli-Q Advantage, Darmstadt, Germany), HNO3 (≥69%, Rotipuran Supra, Carl Roth, Karlsruhe, Germany) and H2O2 (30%, Suprapur, Merck, Darmstadt, Germany) were used for all dilutions for ICP-MS measurements. The Ru standard solution was purchased from Labkings (Hilversum, The Netherlands).
For the digestion, approx. 25–50 mg of each organ sample were weighed into PFA-tubes, with 2 mL HNO3 and 100 µL H2O2 being added. The solutions were then placed on a hot plate and heated up for 6 hours using a temperature program with a maximum temperature of 200 °C. After cooling down, the liquids were transferred directly to 15 mL tubes with the remaining solution being removed from the PFA tubes by washing twice with 4 mL ultrapure water, resulting in a final volume of about 10 mL. By writing down the total weight of the resulting liquid, the dilution factor could be calculated.

[1] = Tumor, 24 h p.i., 30 mg/kg i.v.

[Cl][Ru]([Cl])([Cl])[Cl].[Na+].c1ccc2[nH]ncc2c1.c1ccc2[nH]ncc2c1 [3b, [^103Ru]sodium trans-[tetrachloridobis(indazole)ruthenate(III)]]
tumor/organ ratio Blood cells (Blood cells, 4 h): 0.4 ± 0.1 | %ID/g tissue Blood cells (Blood cells, 4 h p.i., 30 mg/kg i.v.): 11.98 ± 2.26 %ID/g tissue | %ID/g tissue Blood cells (Blood cells, 24 h p.i., 30 mg/kg i.v.): 3.41 ± 0.97 %ID/g tissue | %ID/g tissue Blood cells (Blood cells, 48 h p.i., 30 mg/kg i.v.): 2.94 ± 1.32 %ID/g tissue | %ID/g tissue Blood cells (Blood cells, 72 h p.i., 30 mg/kg i.v.): 2.19 ± 0.96 %ID/g tissue | tumor/organ ratio Bones (4 h): 3.4 ± 0.5 | %ID/g tissue Bones (4 h p.i., 30 mg/kg i.v.): 1.34 ± 0.30 %ID/g tissue | tumor/organ ratio Bones (24 h): 5.4 ± 0.6 | %ID/g tissue Bones (24 h p.i., 30 mg/kg i.v.): 1.19 ± 0.29 %ID/g tissue | tumor/organ ratio Bones (48 h): 7.0 ± 0.8 | %ID/g tissue Bones (48 h p.i., 30 mg/kg i.v.): 0.90 ± 0.24 %ID/g tissue | tumor/organ ratio Bones (72 h): 4.9 ± 1.7 | %ID/g tissue Bones (72 h p.i., 30 mg/kg i.v.): 1.00 ± 0.15 %ID/g tissue | tumor/organ ratio Brain (4 h): 10.7 ± 3.3 | %ID/g tissue Brain (4 h p.i., 30 mg/kg i.v.): 0.46 ± 0.20 %ID/g tissue | tumor/organ ratio Brain (24 h): 51.9 ± 4.4 | %ID/g tissue Brain (24 h p.i., 30 mg/kg i.v.): 0.12 ± 0.02 %ID/g tissue | tumor/organ ratio Brain (48 h): 53.3 ± 14.3 | %ID/g tissue Brain (48 h p.i., 30 mg/kg i.v.): 0.13 ± 0.05 %ID/g tissue | tumor/organ ratio Brain (72 h): 54.3 ± 15.1 | %ID/g tissue Brain (72 h p.i., 30 mg/kg i.v.): 0.09 ± 0.05 %ID/g tissue | %ID/g tissue Colon (4 h p.i., 30 mg/kg i.v.): 3.89 ± 0.96 %ID/g tissue | %ID/g tissue Colon (24 h p.i., 30 mg/kg i.v.): 1.88 ± 0.37 %ID/g tissue | %ID/g tissue Colon (48 h p.i., 30 mg/kg i.v.): 2.34 ± 0.72 %ID/g tissue | %ID/g tissue Colon (72 h p.i., 30 mg/kg i.v.): 2.19 ± 0.77 %ID/g tissue | tumor/organ ratio Fat (4 h): 5.1 ± 2.1 | tumor/organ ratio Fat (24 h): 10.3 ± 2.1 | tumor/organ ratio Fat (48 h): 13.3 ± 5.0 | tumor/organ ratio Fat (72 h): 8.6 ± 3.5 | tumor/organ ratio Heart (4 h): 0.8 ± 0.2 | %ID/g tissue Heart (4 h p.i., 30 mg/kg i.v.): 5.93 ± 1.10 %ID/g tissue | tumor/organ ratio Heart (24 h): 2.0 ± 0.2 | %ID/g tissue Heart (24 h p.i., 30 mg/kg i.v.): 3.24 ± 0.73 %ID/g tissue | tumor/organ ratio Heart (48 h): 2.1 ± 0.2 | %ID/g tissue Heart (48 h p.i., 30 mg/kg i.v.): 2.98 ± 0.41 %ID/g tissue | tumor/organ ratio Heart (72 h): 1.5 ± 0.4 | %ID/g tissue Heart (72 h p.i., 30 mg/kg i.v.): 3.12 ± 0.84 %ID/g tissue | tumor/organ ratio Kidneys (4 h): 0.4 ± 0.1 | %ID/g tissue Kidneys (4 h p.i., 30 mg/kg i.v.): 12.98 ± 2.87 %ID/g tissue | tumor/organ ratio Kidneys (24 h): 0.5 ± 0.1 | %ID/g tissue Kidneys (24 h p.i., 30 mg/kg i.v.): 12.55 ± 0.74 %ID/g tissue | tumor/organ ratio Kidneys (48 h): 0.5 ± 0.1 | %ID/g tissue Kidneys (48 h p.i., 30 mg/kg i.v.): 11.79 ± 2.66 %ID/g tissue | %ID/g tissue Kidneys (72 h p.i., 30 mg/kg i.v.): 13.14 ± 5.56 %ID/g tissue | tumor/organ ratio Liver (4 h): 0.2 ± 0.2 | %ID/g tissue Liver (4 h p.i., 30 mg/kg i.v.): 24.41 ± 3.17 %ID/g tissue | tumor/organ ratio Liver (24 h): 0.5 ± 0.1 | %ID/g tissue Liver (24 h p.i., 30 mg/kg i.v.): 13.83 ± 3.38 %ID/g tissue | tumor/organ ratio Liver (48 h): 0.4 ± 0.1 | %ID/g tissue Liver (48 h p.i., 30 mg/kg i.v.): 14.54 ± 2.69 %ID/g tissue | tumor/organ ratio Liver (72 h): 0.4 ± 0.1 | %ID/g tissue Liver (72 h p.i., 30 mg/kg i.v.): 12.26 ± 2.85 %ID/g tissue | %ID/g tissue Lung (4 h p.i., 30 mg/kg i.v.): 9.77 ± 1.75 %ID/g tissue | %ID/g tissue Lung (24 h p.i., 30 mg/kg i.v.): 5.89 ± 3.04 %ID/g tissue | %ID/g tissue Lung (48 h p.i., 30 mg/kg i.v.): 5.08 ± 1.93 %ID/g tissue | %ID/g tissue Lung (72 h p.i., 30 mg/kg i.v.): 4.47 ± 2.10 %ID/g tissue | %ID/g tissue Muscle (4 h p.i., 30 mg/kg i.v.): 1.05 ± 0.14 %ID/g tissue | %ID/g tissue Muscle (24 h p.i., 30 mg/kg i.v.): 0.57 ± 0.19 %ID/g tissue | %ID/g tissue Muscle (48 h p.i., 30 mg/kg i.v.): 0.60 ± 0.16 %ID/g tissue | %ID/g tissue Muscle (72 h p.i., 30 mg/kg i.v.): 0.65 ± 0.17 %ID/g tissue | %ID/g tissue Pancreas (4 h p.i., 30 mg/kg i.v.): 3.75 ± 1.07 %ID/g tissue | %ID/g tissue Pancreas (24 h p.i., 30 mg/kg i.v.): 1.74 ± 0.39 %ID/g tissue | %ID/g tissue Pancreas (48 h p.i., 30 mg/kg i.v.): 2.50 ± 1.33 %ID/g tissue | %ID/g tissue Pancreas (72 h p.i., 30 mg/kg i.v.): 2.01 ± 0.75 %ID/g tissue | tumor/organ ratio Serum (4 h): 0.2 ± 0.0 | %ID/g tissue Serum (4 h p.i., 30 mg/kg i.v.): 28.02 ± 4.87 %ID/g tissue | tumor/organ ratio Serum (24 h): 0.8 ± 0.1 | %ID/g tissue Serum (24 h p.i., 30 mg/kg i.v.): 8.57 ± 3.37 %ID/g tissue | tumor/organ ratio Serum (48 h): 1.3 ± 0.4 | %ID/g tissue Serum (48 h p.i., 30 mg/kg i.v.): 5.31 ± 2.78 %ID/g tissue | tumor/organ ratio Serum (72 h): 1.4 ± 0.3 | %ID/g tissue Serum (72 h p.i., 30 mg/kg i.v.): 3.63 ± 1.78 %ID/g tissue | %ID/g tissue Small intestine (4 h p.i., 30 mg/kg i.v.): 5.49 ± 1.12 %ID/g tissue | %ID/g tissue Small intestine (24 h p.i., 30 mg/kg i.v.): 2.49 ± 0.76 %ID/g tissue | %ID/g tissue Small intestine (48 h p.i., 30 mg/kg i.v.): 2.54 ± 0.95 %ID/g tissue | %ID/g tissue Small intestine (72 h p.i., 30 mg/kg i.v.): 1.92 ± 0.47 %ID/g tissue | %ID/g tissue Spleen (4 h p.i., 30 mg/kg i.v.): 4.63 ± 0.61 %ID/g tissue | %ID/g tissue Spleen (24 h p.i., 30 mg/kg i.v.): 3.92 ± 0.66 %ID/g tissue | %ID/g tissue Spleen (48 h p.i., 30 mg/kg i.v.): 6.01 ± 2.98 %ID/g tissue | %ID/g tissue Spleen (72 h p.i., 30 mg/kg i.v.): 5.08 ± 1.56 %ID/g tissue | %ID/g tissue Stomach (4 h p.i., 30 mg/kg i.v.): 2.88 ± 0.82 %ID/g tissue | %ID/g tissue Stomach (24 h p.i., 30 mg/kg i.v.): 1.34 ± 0.22 %ID/g tissue | %ID/g tissue Stomach (48 h p.i., 30 mg/kg i.v.): 1.60 ± 0.36 %ID/g tissue | %ID/g tissue Stomach (72 h p.i., 30 mg/kg i.v.): 1.69 ± 0.64 %ID/g tissue | %ID/g tissue Tumor (Tumor, 4 h p.i., 30 mg/kg i.v.): 4.49 ± 1.03 %ID/g tissue | %ID/g tissue Tumor [1]: 6.39 ± 1.44 %ID/g tissue | tumor uptake (highest level) [1]: 6.4 %ID/g | %ID/g tissue Tumor (Tumor, 48 h p.i., 30 mg/kg i.v.): 6.19 ± 1.26 %ID/g tissue | %ID/g tissue Tumor (Tumor, 72 h p.i., 30 mg/kg i.v.): 4.77 ± 1.68 %ID/g tissue
